Experiments:
[1] = biological target: T1, BCL6 (Homo sapiens (Human), UniProt P41182); experiment: Immunofluorescence high content imaging of BCL6 degradation in T47D cells; assay type: cell-based; settings: for Dmax: T47D; for DC50: class symbols A-D, read-out: EC50 (nM)*
Method in brief: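 BCL6 loss was quantified by high-content imaging (10×, 4 fields/well) after PFA fixation and anti-BCL6/Alexa-488 staining with Hoechst nuclear and CellMask counterstains. Compounds were applied for 3 days to T47D breast cancer cells in RPMI-10% FBS, 11 points, 3-fold steps, top 0.1 or 1 μM.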

[2] = biological target: T1, BCL6; experiment: BCL6 TR-FRET assay (BCL6-Avitag-Biotin / BCoR-Cy5 peptide); assay type: binding
Procedure: Protein Synthesis. BCL6 protein was expressed by transforming Invitrogen One Shot cells with GS63525 pET24a-His-SUMO-TEV-BCLm-Avitag plasmid following manufacturer's instructions. In addition, biotin at a final concentration of 50 μM, and IPTG at a final concentration of 1 mM was added to the culture and incubated at room temperature shaking overnight.
Assay buffer A: 50 mM HEPES pH 7.5, 125 mM NaCl, 0.01% TritonX.
Assay buffer B (made fresh): buffer A+1 mM Glutathione (or 0.5 mM DTT).
Assay buffer C (made fresh): buffer B+0.03% BSA.
Black Proxy plates, 96 well.
15 μl final reaction volumes (BCoR-Cy5 100 nM, SA-Eu 2 nM, BCL6-avitag 2 nM).
[…] BCL6-Avitag-Biotin stock: made fresh by adding 2 μl of BCL6-Avitag-Biotin to 31.5 ml Buffer C.
1 mM BCoR-Cy5 peptide (LifeTein) stock in Dimethylformamide (DMF).
300 nM BCoR-Cy5 working stock: made fresh by adding 4.5 μl of the 1 mM BCoR-Cy5 peptide stock to 15 ml Buffer B.
10 μM Eu-Streptavidin (Lance Eu-W1024 Streptavidin, PerkinElmer) stock solution.
6 nM Eu-Streptavidin working stock: made fresh by adding 9 μl Eu-Streptavidin stock solution to 15 ml Buffer A.
Compounds were diluted to 10 mM. Twenty microliters of DMSO was aliquoted to each well of the microtiter plates. From the 10 mM compound stock, 8.7 ul was aliquoted to the 20 ul DMSO and 3-fold serial dilutions (12 pt 3-0.01 uM tritration plate, 96 well, 100% DMSO) performed. Five ul from the titration plate wells was aliquoted to 45 ul Buff C (Intermediate dilution plates, 10% DMSO).
Spot 1.5 μl compound titrations to 384-well plates in duplicate, and spot 3.5 μl [8.5 nM] BCL6-bio protein to each well. The plate was mix briefly, centrifuged, and incubated for 30 minutes at room temperature.
Mix 14 mls of BCoR-Cy5 [300 nM] and 14 mls [6 nM] Eu-Streptavidin. Spot 10 μl BCoR-Cy5/SA-Eu (1:1) mix to each well. The plates were incubated for 2 hours and then read on an Envision plate reader.

[3] = class symbols A-D, read-out: IC50 (nM)***

Structure (SMILES) | Dmax ([1]; maximum, class symbols A-C) | DC50 [1] | IC50 [2, 3] | IC50 [1] | Dmax [1] | EC50 [2] | IC50 ([2]; read-out: IC50)
CNC(=O)COc1cc2cc(Nc3nc(N4CCC(OCCOCCOCCOCCCOc5ccc6c(c5)CN(C5CCC(=O)NC5=O)C6=O)CC4)ncc3Cl)ccc2n(C)c1=O (centres unmarked) [compound 168, 2-((6-((5-chloro-2-(4-(2-(2-(2-(3-((2-(2,6-dioxopiperidin-3-yl)-1-oxoisoindolin-5-yl)oxy)propoxy)ethoxy)ethoxy)ethoxy)piperidin-1-yl)pyrimidin-4-yl)amino)-1-methyl-2-oxo-1,2-dihydroquinolin-3-yl)oxy)-N-methylacetamide] | 50 to 70% | > 100 nM | 10 to 50 nM |  |  |  | 
CNC(=O)COc1cc2cc(Nc3nc(N4CCN(C(C)(C)C5CCN(c6ccc7c(c6)C(=O)N(C6CCC(=O)NC6=O)C7=O)CC5)CC4)ncc3Cl)ccc2n(C)c1=O (centres unmarked) [compound 203, 2-((6-((5-chloro-2-(4-(2-(1-(2-(2,6-dioxopiperidin-3-yl)-1,3-dioxoisoindolin-5-yl)piperidin-4-yl)propan-2-yl)piperazin-1-yl)pyrimidin-4-yl)amino)-1-methyl-2-oxo-1,2-dihydroquinolin-3-yl)oxy)-N-methylacetamide] |  |  |  | < 10 nM | ≥ 70% | > 100 nM | 
CNC(=O)COc1cc2cc(Nc3nc(N4CCN(C(C)(C)C5CCN(c6c(OC)ccc(C(=O)NC7CCC(=O)NC7=O)c6F)CC5)CC4)ncc3Cl)ccc2n(C)c1=O (centres unmarked) [compound 481, 3-[4-(2-{4-[5-chloro-4-({1-methyl-3-[(methylcarbamoyl)methoxy]-2-oxo-1,2-dihydroquinolin-6-yl}amino)pyrimidin-2-yl]piperazin-1-yl}propan-2-yl)piperidin-1-yl]-N-(2,6-dioxopiperidin-3-yl)-2-fluoro-4-methoxybenzamide] |  |  |  |  | ≥ 70% |  | < 10 nM
CC(=O)COc1cc2cc(Nc3nc(N4CCN(C5CCN(CCCOc6ccc7c(c6)CN(C6CCC(=O)NC6=O)C7=O)C5)CC4)ncc3Cl)ccc2n(C)c1=O (centres unmarked) [compound 158, 3-(5-(3-(3-(4-(5-chloro-4-((1-methyl-2-oxo-3-(2-oxopropoxy)-1,2-dihydroquinolin-6-yl)amino)pyrimidin-2-yl)piperazin-1-yl)pyrrolidin-1-yl)propoxy)-1-oxoisoindolin-2-yl)piperidine-2,6-dione] | < 50% | 10 to 50 nM | < 10 nM |  |  |  | 
CNC(=O)COc1cc2cc(Nc3nc(N4CCC(CN5CC6(CCN(c7cccc8c7C(=O)N(C7CCC(=O)NC7=O)C8=O)C6)C5)CC4)ncc3Cl)ccc2n(C(C)C)c1=O (centres unmarked) [compound 501, 2-{[6-({5-chloro-2-[4-({6-[2-(2,6-dioxopiperidin-3-yl)-1,3-dioxo-2,3-dihydro-1H-isoindol-4-yl]-2,6-diazaspiro[3.4]octan-2-yl}methyl)piperidin-1-yl]pyrimidin-4-yl}amino)-2-oxo-1-(propan-2-yl)-1,2-dihydroquinolin-3-yl]oxy}-N-methylacetamide] |  |  |  |  | 50 to 70% |  | < 10 nM
CNC(=O)COc1cc2cc(Nc3cc(N4CCC(CN5CCN(c6ccc7c(c6)C(=O)N(C6CCC(=O)NC6=O)C7=O)CC5)CC4)ncc3Cl)ccc2n(C)c1=O (centres unmarked) [compound 197, 2-((6-((5-chloro-2-(4-((4-(2-(2,6-dioxopiperidin-3-yl)-1,3-dioxoisoindolin-5-yl)piperazin-1-yl)methyl)piperidin-1-yl)pyridin-4-yl)amino)-1-methyl-2-oxo-1,2-dihydroquinolin-3-yl)oxy)-N-methylacetamide] |  |  |  | 50 to 100 nM | 50 to 70% | 50 to 100 nM | 
CNC(=O)COc1cc2cc(Nc3nc(N4CCN(CC5CCN(c6ccc(C(=O)NC7CCC(=O)NC7=O)cc6)CC5)CC4)ncc3Cl)ccc2n(C)c1=O (centres unmarked) [compound 276, 4-[4-({4-[5-chloro-4-({1-methyl-3-[(methylcarbamoyl)methoxy]-2-oxo-1,2-dihydroquinolin-6-yl}amino)pyrimidin-2-yl]piperazin-1-yl}methyl)piperidin-1-yl]-N-(2,6-dioxopiperidin-3-yl)benzamide] |  |  |  | ≥ 100 nM | < 50% | < 10 nM | 
CC(=O)COc1cc2cc(Nc3nc(N4CCC(CN5CCN(c6ccc7c(c6)CN(C6CCC(=O)NC6=O)C7=O)CC5)CC4)ncc3Cl)ccc2n(C)c1=O (centres unmarked) [compound 175, 3-(5-(4-((1-(5-chloro-4-((1-methyl-2-oxo-3-(2-oxopropoxy)-1,2-dihydroquinolin-6-yl)amino)pyrimidin-2-yl)piperidin-4-yl)methyl)piperazin-1-yl)-1-oxoisoindolin-2-yl)piperidine-2,6-dione] | 50 to 70% |  | < 10 nM |  |  |  | 
CCNC(=O)COc1cc2cc(Nc3nc(N4CCC(CN5CCN(c6ccc7c(c6)C(=O)N(C6CCC(=O)NC6=O)C7=O)CC5)CC4)ncc3Cl)ccc2n(C)c1=O (centres unmarked) [compound 198, 2-((6-((5-chloro-2-(4-((4-(2-(2,6-dioxopiperidin-3-yl)-1,3-dioxoisoindolin-5-yl)piperazin-1-yl)methyl)piperidin-1-yl)pyrimidin-4-yl)amino)-1-methyl-2-oxo-1,2-dihydroquinolin-3-yl)oxy)-N-ethylacetamide] |  |  |  | 50 to 100 nM | 50 to 70% | > 100 nM | 
CC(=O)COc1cc2cc(Nc3nc(N4CC(OCCN5CCN(c6ccc7c(c6)C(=O)N(C6CCC(=O)NC6=O)C7=O)CC5)C4)ncc3Cl)ccc2n(C)c1=O (centres unmarked) [compound 172, 5-(4-(2-((1-(5-chloro-4-((1-methyl-2-oxo-3-(2-oxopropoxy)-1,2-dihydroquinolin-6-yl)amino)pyrimidin-2-yl)azetidin-3-yl)oxy)ethyl)piperazin-1-yl)-2-(2,6-dioxopiperidin-3-yl)isoindoline-1,3-dione] |  | > 100 nM | ≥ 100 nM |  |  |  | 
CNC(=O)COc1cc2cc(Nc3nc(N4CCC(CN5CCC6(CC5)CCN(c5ccc(N7CCC(=O)NC7=O)cc5)C6)CC4)ncc3Cl)ccc2n(C(C)C)c1=O [compound 497, 2-{[6-({5-chloro-2-[4-({2-[4-(2,4-dioxo-1,3-diazinan-1-yl)phenyl]-2,8-diazaspiro[4.5]decan-8-yl}methyl)piperidin-1-yl]pyrimidin-4-yl}amino)-2-oxo-1-(propan-2-yl)-1,2-dihydroquinolin-3-yl]oxy}-N-methylacetamide] |  |  |  |  | < 50% |  | < 10 nM
CNC(=O)COc1cc2cc(Nc3nc(N4CCOCC4)ncc3Cl)ccc2n(CCOc2ccc3c(c2)C(=O)N(C2CCC(=O)NC2=O)C3=O)c1=O (centres unmarked) [compound 475, 2-[(6-{[5-chloro-2-(morpholin-4-yl)pyrimidin-4-yl]amino}-1-(2-{[2-(2,6-dioxopiperidin-3-yl)-1,3-dioxo-2,3-dihydro-1H-isoindol-5-yl]oxy}ethyl)-2-oxo-1,2-dihydroquinolin-3-yl)oxy]-N-methylacetamide] |  |  |  |  | ≥ 70% |  | ≥ 100 nM
CC(=O)COc1cc2cc(Nc3nc(C#CC4CCN(c5ccc6c(c5)C(=O)N(C5CCC(=O)NC5=O)C6=O)CC4)ncc3Cl)ccc2n(C)c1=O (centres unmarked) [compound 171, 5-(4-((5-chloro-4-((1-methyl-2-oxo-3-(2-oxopropoxy)-1,2-dihydroquinolin-6-yl)amino)pyrimidin-2-yl)ethynyl)piperidin-1-yl)-2-(2,6-dioxopiperidin-3-yl)isoindoline-1,3-dione] | < 50% | 10 to 50 nM | 10 to 50 nM |  |  |  | 
CNC(=O)COc1cc2cc(Nc3nc(N4CCN(CC5CCN(c6cccc7c6C(=O)N(C6CCC(=O)NC6=O)C7=O)CC5)CC4)ncc3Cl)ccc2n(CCOC)c1=O (centres unmarked) [compound 454, 2-{[6-({5-chloro-2-[4-({1-[2-(2,6-dioxopiperidin-3-yl)-1,3-dioxo-2,3-dihydro-1H-isoindol-4-yl]piperidin-4-yl}methyl)piperazin-1-yl]pyrimidin-4-yl}amino)-1-(2-methoxyethyl)-2-oxo-1,2-dihydroquinolin-3-yl]oxy}-N-methylacetamide] |  |  |  |  | ≥ 70% |  | < 10 nM
CC(=O)COc1cc2cc(Nc3nc(N4CCC(CN5CC(C6CN(c7ccc8c(c7)C(=O)N(C7CCC(=O)NC7=O)C8=O)C6)C5)CC4)ncc3Cl)ccc2n(C)c1=O (centres unmarked) [compound 199, 5-(1′-((1-(5-chloro-4-((1-methyl-2-oxo-3-(2-oxopropoxy)-1,2-dihydroquinolin-6-yl)amino)pyrimidin-2-yl)piperidin-4-yl)methyl)-[3,3′-biazetidin]-1-yl)-2-(2,6-dioxopiperidin-3-yl)isoindoline-1,3-dione] |  |  |  | 10 to 50 nM | 50 to 70% | < 10 nM | 

Source: patent publication US12310975B2, “Modulators of BCL6 proteolysis and associated methods of use” (Arvinas Operations, Inc., priority 2019, dated 2025)
